In patent publication US12624018B1, “Inhibitors of RIPK2 and medical uses thereof” (Odyssey Therapeutics, Inc., priority 2022, dated 2026) one finds IC50 data, which are given here for 17 compounds.

The target of one experiment is T1, RIPK2 enzyme (Homo sapiens, UniProt O43353).
T1 construct: purchased Carna 09-128
The experiment in a line: RIPK2 inhibition (ADP-Glo Kinase Assay). Type of experiment: biochemical. Conditions: RIPK2 5 nM, ATP 150 μM, MBP substrate, read-out: RIPK2 IC50. The gist of the method:
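Swine MBP substrate; compound and 5 nM RIPK2 first mixed for 30 min at room temperature; buffer pH 7.5 HEPES 50 mM with 10 mM MgCl2, 2 mM DTT, 1 mM EGTA, Brij-35, BSA.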
(In general: ADP-Glo first removes unused ATP, then detects ADP through luciferase.)

A further experiment concerns human NOD2 signaling. The experiment in a line: Inhibition of human NOD2 signaling in HEK-Blue-hNOD2 cells (L18-MDP stimulated, SEAP reporter). Type of experiment: cell-based. Conditions: Homo sapiens, HEK-Blue hNOD2, HEK-Blue-hNOD2 cells, NOD2 ligand stimulation, SEAP reporter; read-out: hNOD2 IC50. The gist of the method: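 Read-out is SEAP absorbance at 620 nm after 3 h QUANTI-Blue development of supernatant from HEK293 cells carrying NOD2 and a SEAP reporter (12500/well). Cells got compound (10 points, 3-fold dilutions) and 0.5 ng/mL L18-MDP for 24 h at 37 °C; percent inhibition vs stimulated/unstimulated controls, 4-parameter IC50.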

Experiment [1] concerns the target T2, RIPK2 and XIAP protein-protein interaction (Homo sapiens, UniProt O43353).
T2 construct: the N-terminus of full-length RIPK2 was appended with the HaloTag fusion protein; expressed in transfected cells; host or cells: HEK293T
The experiment in a line: Inhibition of the interaction of RIPK2 with XIAP (NanoBRET in HEK293T cells). Type of experiment: cell-based. Conditions: RIPK2 HaloTag / XIAP NanoLuc, read-out: NanoBRET Scaffolding IC50. The gist of the method: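 HEK293T cells transiently co-transfected with HaloTag-RIPK2 (N-terminal) and XIAP-NanoLuc (C-terminal) full-length fusions, grown 24 h at 37° C. in Opti-MEM with 4% FBS. Compounds tested as 10-point 3-fold dilutions; NanoBRET ratio taken as 618 nm acceptor over 460 nm donor emission.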
For orientation: In BRET a luciferase serves as donor, and the signal depends on an acceptor being close.

SMILES strings stand for the structures.

T2 sequence (O43353 whole entry, the tested form may be a part): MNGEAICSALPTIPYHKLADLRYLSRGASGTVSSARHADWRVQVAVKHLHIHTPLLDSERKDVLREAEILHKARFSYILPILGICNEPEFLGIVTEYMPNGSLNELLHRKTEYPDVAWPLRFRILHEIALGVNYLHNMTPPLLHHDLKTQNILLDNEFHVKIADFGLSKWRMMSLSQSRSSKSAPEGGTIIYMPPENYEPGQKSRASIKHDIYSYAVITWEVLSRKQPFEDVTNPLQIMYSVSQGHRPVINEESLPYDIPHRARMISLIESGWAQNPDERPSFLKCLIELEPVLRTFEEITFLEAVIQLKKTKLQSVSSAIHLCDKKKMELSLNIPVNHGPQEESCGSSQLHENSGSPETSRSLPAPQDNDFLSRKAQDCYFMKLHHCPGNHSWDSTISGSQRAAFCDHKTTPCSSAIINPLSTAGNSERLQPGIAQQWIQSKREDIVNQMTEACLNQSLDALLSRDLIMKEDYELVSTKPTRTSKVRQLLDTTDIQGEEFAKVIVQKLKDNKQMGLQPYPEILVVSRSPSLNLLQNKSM
T1 sequence (O43353 1-299 limits assumed): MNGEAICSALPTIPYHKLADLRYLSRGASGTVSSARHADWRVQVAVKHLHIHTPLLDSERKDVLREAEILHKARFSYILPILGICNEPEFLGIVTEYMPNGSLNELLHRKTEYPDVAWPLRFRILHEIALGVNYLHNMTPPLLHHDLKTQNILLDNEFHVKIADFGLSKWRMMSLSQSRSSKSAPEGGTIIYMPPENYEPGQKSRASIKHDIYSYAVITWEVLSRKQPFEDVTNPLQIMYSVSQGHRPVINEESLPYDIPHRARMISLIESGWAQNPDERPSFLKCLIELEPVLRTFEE

For `NC(=O)c1ccc2nccc(Oc3cc(F)c(CC(=O)Nc4cnn(C56CC(C5)C6)c4)cc3Cl)c2c1` [Compound 509, 4-(4-(2-((1-(bicyclo[1.1.1]pentan-1-yl)-1H-pyrazol-4-yl)amino)-2-oxoethyl)-2-chloro-5-fluorophenoxy)quinoline-6-carboxamide], the figures for the IC50 (at RIPK2 enzyme; with human NOD2 signaling; in experiment [1]) were < 2.5 nM, 14.2 nM and 189 nM, respectively.

Regarding `CNC(=O)c1ccc2nccc(Oc3cc(F)c(CC(=O)Nc4cnn(C56CC(C5)C6)c4)cc3Cl)c2c1` [Compound 510, 4-(4-(2-((1-(bicyclo[1.1.1]pentan-1-yl)-1H-pyrazol-4-yl)amino)-2-oxoethyl)-2-chloro-5-fluorophenoxy)-N-methylquinoline-6-carboxamide], the IC50 at RIPK2 enzyme is < 2.5 nM; with human NOD2 signaling, 8.4 nM; in experiment [1] it was 172 nM.

As to `Cc1cc(CC(=O)Nc2cnn(C(C)(C)C)c2)c(F)cc1Oc1ccnc2ccc(C(=O)NC34CC(C3)C4)cc12` [Compound 513, N-(bicyclo[1.1.1]pentan-1-yl)-4-(4-(2-((1-(tert-butyl)-1H-pyrazol-4-yl)amino)-2-oxoethyl)-5-fluoro-2-methylphenoxy)quinoline-6-carboxamide], the IC50 is < 2.5 nM at RIPK2 enzyme, 3.1 nM with human NOD2 signaling and 34.4 nM in experiment [1].

Take `CNC(=O)c1ccc2nccc(Oc3c(C)cc(CC(=O)Nc4cnn(C(C)(C)C)c4)cc3Cl)c2c1` [Compound 515, 4-(4-(2-((1-(tert-butyl)-1H-pyrazol-4-yl)amino)-2-oxoethyl)-2-chloro-6-methylphenoxy)-N-methylquinoline-6-carboxamide]: the IC50 is < 2.5 nM on RIPK2 enzyme, 1.4 nM with human NOD2 signaling and 170 nM in experiment [1].

As for `Cc1cc(CC(=O)Nc2cnn(C(C)(C)C)c2)cc(Cl)c1Oc1ccnc2ccc(C(N)=O)cc12` [Compound 516, 4-(4-(2-((1-(tert-butyl)-1H-pyrazol-4-yl)amino)-2-oxoethyl)-2-chloro-6-methylphenoxy)quinoline-6-carboxamide], the values for the IC50 (on RIPK2 enzyme; in the experiment with human NOD2 signaling; in experiment [1]) were < 2.5 nM, 1 nM and 103 nM, respectively.

As to `CC1(NC(=O)c2ccc3nccc(Oc4cc(F)c(CC(=O)Nc5cnn(C(C)(C)C)c5)cc4Cl)c3c2)CC1` [Compound 517, 4-(4-(2-((1-(tert-butyl)-1H-pyrazol-4-yl)amino)-2-oxoethyl)-2-chloro-5-fluorophenoxy)-N-(1-methylcyclopropyl)quinoline-6-carboxamide], the IC50 is < 2.5 nM at RIPK2 enzyme, 2.7 nM in the experiment with human NOD2 signaling and 311 nM in experiment [1].

`Cc1c(CC(=O)Nc2cnn(C(C)(C)C)c2)ccc(Oc2ccnc3ccc(S(C)(=O)=O)cc23)c1C` [Compound 518, N-(1-(tert-butyl)-1H-pyrazol-4-yl)-2-(2,3-dimethyl-4-((6-(methylsulfonyl)quinolin-4-yl)oxy)phenyl)acetamide]: the IC50 at RIPK2 enzyme was < 2.5 nM; in the experiment on human NOD2 signaling, 1.5 nM; in experiment [1], 26.9 nM.

In the case of `Cc1cc(CC(=O)Nc2cnn(C(C)(C)C)c2)c(F)cc1Oc1ccnc2ccc(-c3nccnc3C(F)(F)F)cc12` [Compound 523, N-(1-(tert-butyl)-1H-pyrazol-4-yl)-2-(2-fluoro-5-methyl-4-((6-(3-(trifluoromethyl)pyrazin-2-yl)quinolin-4-yl)oxy)phenyl)acetamide], the IC50 at RIPK2 enzyme came to 4.9 nM; with human NOD2 signaling, 18.5 nM; in experiment [1], 133 nM.

As to `Cc1c(Oc2ccnc3ccc(C(N)=O)cc23)cc(F)c(CC(=O)Nc2cnn(C34CC(C3)C4)c2)c1F` [Compound 556, 4-(4-(2-((1-(bicyclo[1.1.1]pentan-1-yl)-1H-pyrazol-4-yl)amino)-2-oxoethyl)-3,5-difluoro-2-methylphenoxy)quinoline-6-carboxamide], the IC50 on RIPK2 enzyme is < 2.5 nM; in the experiment on human NOD2 signaling, 0.9 nM; in experiment [1], 42.1 nM.

For the compound `CNC(=O)c1ccc2nccc(Oc3cc(F)c(CC(=O)Nc4cnn(C56CC(C5)C6)c4)c(F)c3C)c2c1` [Compound 557, 4-(4-(2-((1-(bicyclo[1.1.1]pentan-1-yl)-1H-pyrazol-4-yl)amino)-2-oxoethyl)-3,5-difluoro-2-methylphenoxy)-N-methylquinoline-6-carboxamide], the IC50 on RIPK2 enzyme was < 2.5 nM; in the experiment with human NOD2 signaling it was 0.3 nM; in experiment [1], 35.1 nM.

As for `[2H]C([2H])([2H])NC(=O)c1ccc2nccc(Oc3cc(F)c(CC(=O)Nc4cnn(C56CC(C5)C6)c4)c(F)c3C)c2c1` [Compound 558, 4-(4-(2-((1-(bicyclo[1.1.1]pentan-1-yl)-1H-pyrazol-4-yl)amino)-2-oxoethyl)-3,5-difluoro-2-methylphenoxy)-N-(methyl-d3)quinoline-6-carboxamide], the IC50 was < 2.5 nM at RIPK2 enzyme, 0.7 nM in the experiment on human NOD2 signaling and 57.3 nM in experiment [1].

As to `Cc1cc(CC(=O)Nc2cnn(C(C)(C)C)c2)ccc1Oc1ccnc2ccc(CS(C)(=O)=O)cc12` [Compound 560, N-(1-(tert-butyl)-1H-pyrazol-4-yl)-2-(3-methyl-4-((6-((methylsulfonyl)methyl)quinolin-4-yl)oxy)phenyl)acetamide], the IC50 is < 2.5 nM at RIPK2 enzyme, 8.9 nM with human NOD2 signaling and 301 nM in experiment [1].

With `Cc1c(Oc2ccnc3ccc(CS(C)(=O)=O)cc23)cc(F)c(CC(=O)Nc2cnn(C(C)(C)C)c2)c1F` [Compound 562, N-(1-(tert-butyl)-1H-pyrazol-4-yl)-2-(2,6-difluoro-3-methyl-4-((6-((methylsulfonyl)methyl)quinolin-4-yl)oxy)phenyl)acetamide], the results for the IC50 (on RIPK2 enzyme; in the experiment with human NOD2 signaling; in experiment [1]) were < 2.5 nM, 1.2 nM and 61.1 nM, respectively.

As to `Cc1cc(CC(=O)Nc2cnn(C(C)(C)C)c2)c(F)cc1Oc1ccnc2ccc(CC(N)=O)cc12` [Compound 566, 2-(4-((6-(2-amino-2-oxoethyl)quinolin-4-yl)oxy)-2-fluoro-5-methylphenyl)-N-(1-(tert-butyl)-1H-pyrazol-4-yl)acetamide], the results for the IC50 (on RIPK2 enzyme; with human NOD2 signaling; in experiment [1]) were < 2.5 nM, 11.1 nM and 459 nM, respectively.

With `Cc1cc(CC(=O)Nc2cnn(C(C)(C)C)c2)c(F)cc1Oc1ccnc2ccc(C(C)(C)C(N)=O)cc12` [Compound 568, 2-(4-(4-(2-((1-(tert-butyl)-1H-pyrazol-4-yl)amino)-2-oxoethyl)-5-fluoro-2-methylphenoxy)quinolin-6-yl)-2-methylpropanamide], the IC50 at RIPK2 enzyme is < 2.5 nM; in the experiment with human NOD2 signaling, 24.4 nM; in experiment [1] it was 179 nM.

Take `Cc1cc(CC(=O)Nc2cnn(C(C)(C)C)c2)c(F)cc1Oc1ccnc2ccc(C(F)(F)C(N)=O)cc12` [Compound 572, 2-(4-(4-(2-((1-(tert-butyl)-1H-pyrazol-4-yl)amino)-2-oxoethyl)-5-fluoro-2-methylphenoxy)quinolin-6-yl)-2,2-difluoroacetamide]: the IC50 on RIPK2 enzyme was < 2.5 nM; with human NOD2 signaling it was 1.1 nM; in experiment [1], 37.2 nM.

`CNC(=O)c1cc2c(Oc3c(C)cc(CC(=O)Nc4cnn(C(C)(C)C)c4)cc3C)ccnc2cc1F` [Compound 582, 4-(4-(2-((1-(tert-butyl)-1H-pyrazol-4-yl)amino)-2-oxoethyl)-2,6-dimethylphenoxy)-7-fluoro-N-methylquinoline-6-carboxamide]: the IC50 at RIPK2 enzyme is < 2.5 nM; in the experiment with human NOD2 signaling it was 0.6 nM; in experiment [1], 36.3 nM.
